{"source": "patent US11752125B2", "about": "“Anti-neuroinflammatory and protective compounds in Achillea fragrantissima” (THE STATE OF ISRAEL MINISTRY OF AGRICULTURE & RURAL …, priority 2013, dated 2023)", "key": {"[1]": {"test_system": "astrocytes", "experiment": "Cellular antioxidant activity (ABAP peroxyl radicals) in astrocytes", "assay_type": "cell-based", "conditions": "for effect on ABAP-generated peroxyl radical (ROS) fluorescence: astrocytes, ABAP 0.6 mM", "protocol": "In the cellular antioxidant activity (CAA) assay, cell viability was determined by a modification of the crystal violet assay (Kueng et al., 1989) as follows. At the end of cell treatments, cells were fixed with 150 μL of 5% (v/v) formaldehyde (in PBS) for 15 min at room temperature. Plates were washed by submersion in de-ionized water, dried and stained for 15 min with 150 μL of a 1% crystal violet solution. After careful aspiration of the crystal violet solution the plates were washed with de-ionized water, and dried prior to the solubilization of the bound dye with 150 μL of a 33% aqueous glacial acetic acid solution. The optical density of the plates was measured at 540 nm (with a 690 nm reference filter) in a microplate spectrophotometer.\nIntracellular ROS production was detected using the non-fluorescent cell permeating compound, 2′7′-dichlorofluorescein diacetate (DCF-DA). DCF-DA is hydrolyzed by intracellular esterases and then oxidized by ROS to a fluorescent compound 2′-7′-DCF. Peroxyl radicals are generated by thermolysis of 2,2′-Azobis(amidinopropane) (ABAP) at physiological temperature. ABAP decomposes at approximately 1.36×10^−6s^−1 at 37° C., producing at most 1×10^12 radicals/mL/s (Bowry and Stocker, 1993; Niki et al., 1986; Thomas et al., 1997). Astrocytes (300,000 cells/well) were plated in DMEM containing 2% FBS, 8.4 mM HEPES, 2 mM glutamine, 100 U/mL penicillin and 100 μg/mL streptomycin, onto 24 well plates. In order to measure the ability of TTF to enter the cells and prevent the formation of dichlorofluorescein (DCF) by ABAP-generated peroxyl radicals, cells were incubated for 1 h with TTF. […] The fluorescence, which indicates ROS levels, was measured in a plate reader with excitation at 485 nm and emission at 520 nm.\n2. […] Read “time 0” fluorescence (Ex: 485 nm and Em: 528 nm); 7. […] Read fluorescence at 3, 6, and 24 hr Ex: 485 nm and Em: 528 nm; 9. […]\nAstrocytes were incubated with TTF or quercetin for 2 h. […] ABAP (0.6 mM) was added to the culture and the fluorescence intensity, representing ROS levels was measured. […]"}, "[2]": {"test_system": "NO", "experiment": "NO (nitrite) production by LPS-activated microglial cells (Griess)", "assay_type": "cell-based, rat", "conditions": "Rattus norvegicus; 40 μM (highest concentration tested); LPS 4.5 ng/mL, 20 h; read-out: inhibition of NO secretion", "protocol": "Cultures of primary rat microglial cells were prepared from cerebral cortices of 1-2 day-old neonatal Wistar rats as described. Microglial cells were seeded at 24-well plastic plates at 1×10^5/well in RPMI-1640 containing 2% FBS, 2 mM glutamine, 100 U/mL penicillin, 100 µg/mL streptomycin, 1 mM sodium pyruvate, and 50 μM β-mercaptoethanol. Cells were cultured for 36 h before treatments. The research was conducted in accordance with the NIH guide for the care and use of laboratory animals, and was approved by the Institutional Animal Care and Use Committee of The Volcani Center, Agricultural Research Organization (IL-135/07, approval date Apr. 11, 2007). All efforts were made to minimize animal suffering, and to reduce the number of animals used.\nFor NO measurements, 1×10^5 microglial cells/well were plated in a 24-well tissue culture plate. Cells were stimulated with LPS (4.5 ng/mL) and concomitantly treated with achillolide A or a reference drug. NO levels in the culture medium were estimated with Griess reagent.\n3. Activate microglial cells with lipopolysaccharide (LPS, 4.5 nanograms/mL);\nIn FIG. 21 A, microglial cells were treated with different concentrations of achillolide A, dexamethasone or memantine (as reference drugs) and were concomitantly activated by LPS (4.5 ng/mL) for 20 h. Cell conditioned supernatants were collected, and the levels of NO were measured using Griess reaction. Cytotoxicity was measured using the LDH method (FIG. 21B). Values represent the mean±SEM (n=12 for each treatment). ** p<0.01; ***p<0.001 relative to cells that were treated to LPS only."}}}
{"smiles": "COc1cc(-c2oc3cc(OC)c(OC)c(O)c3c(=O)c2O)ccc1O", "note": "[TTF, 3,5,4′-trihydroxy-6,7,3′-trimethoxyflavone]", "values": [{"measurement": "effect on ABAP-generated peroxyl radical (ROS) fluorescence", "setting": "[1]", "result": "moderated the increase in ROS-induced fluorescence"}, {"measurement": "cell viability in the cellular antioxidant activity assay", "setting": "[1]; crystal violet, 20 h after ABAP", "result": "cell viability was not affected"}]}
{"smiles": "C=C1CCC2=C(CO)C(=O)O[C@H]2/C=C(\\C)[C@H](OC(C)=O)CC1=O", "note": "[achillolide A]", "values": [{"measurement": "inhibition at 40 µM", "setting": "[2]", "result": 66, "unit": "%"}]}
{"smiles": "CC12CC3CC(C)(C1)CC(N)(C3)C2", "note": "[memantine, reference compound]", "values": [{"measurement": "inhibition at 40 µM", "setting": "[2]", "result": 64, "unit": "%"}]}
{"smiles": "O=c1c(O)c(-c2ccc(O)c(O)c2)oc2cc(O)cc(O)c12", "note": "[quercetin, 3,3′,4′,5,7-Pentahydroxyflavone, reference compound]", "values": [{"measurement": "effect on ABAP-generated peroxyl radical (ROS) fluorescence", "setting": "[1]", "result": "similarly effective as TTF"}]}
